Assays:
[1] = test system: 92.1 uveal melanoma cell line; experiment: Cell proliferation in combination dose matrix (Cell Titer Glo, Chalice); type: cell-based, human; settings: 92.1 cells; for anti-proliferative response in dose matrix: 0.039 μM to 10 μM; for inhibition at 0.16 µM: Homo sapiens, 0.16 μM of each agent, 144 hours, Cell Titer Glo, read-out: growth inhibition (FIG. 2, top panel)
Experimental: Cells were seeded at a density of 3000 cells per 100 μl of medium per well in 96-well plates (Costar #3904) and incubated overnight prior to compound addition. Compound stock was freshly prepared in the appropriate culture medium and manually added to the plates by electronic multichannel pipette in three replicates. Cells were treated with compound alone or with a combination of AEB071 and COMPOUND B diluted 1:2 for a ten point dilution ranging from 0.039 μM to 10 μM. The viability of cells was assessed at the time of compound addition and after 144 hours of treatment by quantification of cellular ATP levels via Cell Titer Glo (Promega #G7571) according to the manufacturer's protocol. Plates were read on a luminescence plate reader (Victor X4, Perkin Elmer). Fractional inhibition of growth was calculated using XLfit and normalized to no compound wells. For growth inhibition, day 0 values were subtracted before calculating inhibition. Data was analyzed by Chalice software
(http://chalice.zalicus.com/documentation/analyzer/index.jsp) to calculate growth inhibition, inhibition and HSA excess.
FIG. 2 provides a closer look at the patterns of synergy between the two agents in the 92.1 cell line. The dose matrix between the two agents is shown; the effect on cell growth relative to untreated cells is shown in the top panel, the excess inhibition (HSA) in the center panel and the growth inhibition relative to day zero normalization is shown in the bottom panel. Methods of calculations for growth inhibition, inhibition and HSA excess are known in the art.
Inhibition and excess inhibition values for all dose combinations can be seen in FIG. 2. The growth rate of the cells during the […] assay was taken into account for the calculation of growth inhibition percent shown in FIG. 2, bottom panel. 100% indicated stasis, meaning the cells had neither grown nor died during the course of the assay, values in excess of 100 indicate death, 200 being complete cell death, and values below 100 indication growth from the start of the assay to the day 3 end point.

[2] = test system: OMM1 uveal melanoma cell line (GNA11 mutation); experiment: Proliferation measurement by xCELLigence; type: cell-based; settings: OMM1 cells, 0.5 μM per compound, 6 days
Experimental: (§1) 92.1 and OMM-1 uveal melanoma cell lines were cultured in Roswell Park Memorial Institute medium (RPMI 1640) (American Type Culture Collection (ATCC #30-2001)) supplemented with 10% fetal bovine serum and incubated at 37° C./5% carbon dioxide.
(§2) Compound stocks of 3-(1H-indol-3-yl)-4-[2-(4-methyl-piperazin-1-yl)-quinazolin-4-yl]-1H-pyrrole-2,5-dione, hereafter AEB071, and of 6-(4-bromo-2-fluorophenylamino)-7-fluoro-3-methyl-3H-benzoimidazole-5-carboxylic acid (2-hydroxyethoxy)-amide, hereafter COMPOUND B, were prepared in dimethylsulfoxide (DMSO) at a final concentration of 10 mM.
(§3) Growth of uveal cells was continuously monitored with the xCELLigence real-time cell analyzer. E-plates (Roche #05 232 368 001) were incubated with cells added at a final concentration of 3000 cells per 100 μl per well. Impedance was measured every 2 hours for 24 hours. […] Impedance was measured every 2 hours over 7 days. Data was normalized to day 0 prior to compound addition.
(§4) The effect of 3-(1H-indol-3-yl)-4-[2-(4-methyl-piperazin-1-yl)-quinazolin-4-yl]-1H-pyrrole-2,5-dione (COMPOUND A) and 6-(4-bromo-2-fluorophenylamino)-7-fluoro-3-methyl-3H-benzoimidazole-5-carboxylic acid (2-hydroxyethoxy)-amide (COMPOUND B) on uveal melanoma proliferation in vitro is shown (FIG. 1).

[3] = test system: 92.1 human uveal melanoma xenograft (GNAQ mutation); experiment: In vivo activity in the 92.1 human uveal melanoma nude mouse xenograft model
Experimental: NVP-AEB071 (also referred to as AEB071) (acetate salt, 87.96% free base) powder was added to 20% polyethyleneglycol 400 (PEG400): 4.5% 0.1M HCl: 75.5% of 5% dextrose in water (D5W), designated as Vehicle 1, and stirred to obtain a clear red solution. NVP-COMPOUND B (also referred to as COMPOUND B) was formulated as a homogenous suspension in 1% carboxymethyl cellulose: 0.5% Tween® 80 in deionized water. A fresh suspension was prepared once per week for each compound and stored at 4° C.
The animals were fed ad libitum water (reverse osmosis, 1 ppm Cl) and NIH 31 Modified and Irradiated Lab Diet® consisting of 18.0% crude protein, 5.0% crude fat, and 5.0% crude fiber. The mice were housed on irradiated Enrich-O'Cobs™ Laboratory Animal Bedding in static microisolators on a 12-hour light cycle at 20-22° C. (68-72° F.) and 40-60% humidity. DRS-NC specifically complies with the recommendations of the Guide for Care and Use of Laboratory Animals with respect to restraint, husbandry, surgical procedures, feed and fluid regulation, and veterinary care. The animal program at DRS-NC is accredited by the Association for Assessment and Accreditation of Laboratory Animal Care (AAALAC) International, which assures compliance with accepted standards for the care and use of laboratory animals.
The 92.1 uveal melanoma cells were harvested during exponential growth, and re-suspended in cold PBS (phosphate buffered saline) with 50% Matrigel™ (BD Biosciences). Each mouse was inoculated subcutaneously in the right flank with 5×10^6 cells (0.2 mL of cell suspension). Tumors were calipered in two dimensions to monitor growth as their mean volume approached the desired 100-150 mm^3 range. Tumor size, in mm^3, was calculated from: Tumor Volume=(w^2×l)/2 where w=width and l=length, in mm, of the tumor. Tumor weight could be estimated with the assumption that 1 mg was equivalent to 1 mm^3 of tumor volume. Twelve days after tumor cell implantation, on Day 1 (D1) of the study, animals with individual tumor volumes of 108-256 mm^3 were sorted into six groups (n=10/group) with group mean tumor volumes of 153-159 mm^3.
AEB071 was administered at 91 mg/kg three times daily (TID) dosing for 21 days. Efficacy was determined from tumor growth inhibition on day 17, the last day with all mice on the study. The activity was calculated at tumor/control (T/C), the percent mean tumor volume change from day 1 to day 17 in drug treated mice (ΔT) versus vehicle treated mice, or as a T/T0, the percent reduction in the group mean tumor volume from day 1. […] Addition of COMPOUND B dosed twice daily at 3.5 mg/kg to the AEB071 regimen yielded a −22% T−T0 (p<0.001 median activity, but not significant compared to AEB071 alone). COMPOUND B had no activity in its own right with a T/C of 84%.
Mice were dosed for 21 days, then treatment ceased and tumor outgrowth was monitored. […] Tumor growth delay was not calculated because two or more tumors per group became static after an initial growth period, but the trend of tumor outgrowth rate indicated the AEB071 plus COMPOUND B combination tumors grew out slower than AEB071 single agent, COMPOUND B single agent treated tumors were not monitored due to lack of efficacy.
The effectiveness of the combination increased in a dose dependent manner, with increasing AEB071 dose in combination with COMPOUND B yielding a greater magnitude of response. AEB071 was administered at […] and 22.74 mg/kg, (equivalent to 80, 40 and 20 mg/kg free base) with three times daily dosing (TID) for 21 days in combination with COMPOUND B at 3.5 mg/kg with twice daily dosing in the 92.1 human uveal melanoma nude mouse xenograft model. Efficacy was determined from tumor growth inhibition on day 22. The activity was calculated at tumor/control (T/C), the percent mean tumor volume change from day 1 to day 22 in drug treated mice (ΔT) versus vehicle treated mice, or as a T/T0, the percent reduction in the group mean tumor volume from day 1. […]

[4] = test system: 92.1 uveal melanoma cell line (GNAQ mutation); experiment: Proliferation measurement by xCELLigence; type: cell-based, human; settings: 92.1 cells, 0.5 μM per compound, 6 days
Experimental: as §1, §2, §3, §4

pMARCKS = experiment: Protein immunoblot following drug treatment of uveal melanoma cell lines; type: cell-based, human; settings: 92.1 and OMM-1 cells, 0.5 μM per agent, 2-48 hours
Experimental: Uveal melanoma cells were incubated with 0.5 μM AEB071, 0.5 μM COMPOUND B, both compounds or DMSO alone. Cells were lysed after 2, 4, 8, 24 or 48 hours of treatment in M-PER mammalian protein extraction buffer containing PhosStop Phosphatase inhibitor cocktail tablet (Roche Diagnostics #04 906 837 001) and Complete Protease Inhibitor cocktail tablet (Roche Diagnostics #11 836 145 001). Proteins were separated on a 4-12% Bis-Tris NuPAGE SDS gel (Invitrogen #WG1403Bx10) and subsequently transferred to a nitrocellulose membrane using a dry blotting system (Invitrogen iBLOT). Proteins were detected with 1:1000 dilutions of anti-p44/42 MAPK (Cell Signaling Technologies #4377), anti-pMARCKS (Cell Signaling Technologies #2741), anti-pMEK1/2 (Cell Signaling Technologies #9121) and anti-Beta Actin (Ambion#AM4202). Beta actin was detected using the appropriate secondary antibody and an infrared dye detection system (Odyssey IRDye, LI-COR) according to the manufacturer's protocol. All other proteins were detected using an anti-rabbit-HRP secondary antibody and developed with SuperSignal West Dura Chemiluminescent Substrate (Thermo Scientific #34076) on a Syngene imaging system. The biochemical effect of these agents was assessed following treatment with 0.5 μM AEBO071, 0.5 μM COMPOUND B or 0.5 μM of each agent together in the uveal melanoma cell lines 92.1 and OMM-1. […]

pMEK1/2 = experiment: as above; type: cell-based, human; settings: 92.1 and OMM-1 cells, 0.5 μM per agent, over time, clearly observed at 48 hours
Experimental: (§5) Uveal melanoma cells were incubated with 0.5 μM AEB071, 0.5 μM COMPOUND B, both compounds or DMSO alone. Cells were lysed after 2, 4, 8, 24 or 48 hours of treatment in M-PER mammalian protein extraction buffer containing PhosStop Phosphatase inhibitor cocktail tablet (Roche Diagnostics #04 906 837 001) and Complete Protease Inhibitor cocktail tablet (Roche Diagnostics #11 836 145 001). Proteins were separated on a 4-12% Bis-Tris NuPAGE SDS gel (Invitrogen #WG1403Bx10) and subsequently transferred to a nitrocellulose membrane using a dry blotting system (Invitrogen iBLOT). Proteins were detected with 1:1000 dilutions of anti-p44/42 MAPK (Cell Signaling Technologies #4377), anti-pMARCKS (Cell Signaling Technologies #2741), anti-pMEK1/2 (Cell Signaling Technologies #9121) and anti-Beta Actin (Ambion#AM4202). Beta actin was detected using the appropriate secondary antibody and an infrared dye detection system (Odyssey IRDye, LI-COR) according to the manufacturer's protocol. All other proteins were detected using an anti-rabbit-HRP secondary antibody and developed with SuperSignal West Dura Chemiluminescent Substrate (Thermo Scientific #34076) on a Syngene imaging system.
(§6) The biochemical effect of these agents was assessed following treatment with 0.5 μM AEBO071, 0.5 μM COMPOUND B or 0.5 μM of each agent together in the uveal melanoma cell lines 92.1 and OMM-1. The level of pMARCKS was attenuated (FIG. 3). […] The combination of AEB071 and COMPOUND B suppressed pathway components to a greater magnitude and duration compared to either single agent.

pERK1/2 = experiment: as above; type: cell-based, human; settings: 92.1 and OMM-1 cells
Experimental: as §5, §6

Compound | anti-proliferative response in dose matrix [1] | inhibition at 0.16 µM [1] | effect on growth of uveal melanoma cell line (xCELLigence) [2] | mean tumor response during the dosing period ([3]; 21 days dosing (FIG. 5)) | T/C (tumor/control) ([3]; AEB071 22.7 mg/kg (20 mg/kg free base) TID for 21 days, day 22, non-significant) | T/C (tumor/control) ([3]; AEB071 45.5 mg/kg (40 mg/kg free base) TID for 21 days, day 22, non-significant) | T/C (tumor/control) ([3]; AEB071 90.95 mg/kg (80 mg/kg free base) TID for 21 days, day 22, p<0.05) | T/C (tumor/control) ([3]; AEB071 (acetate salt) 91 mg/kg TID for 21 days, day 17, p<0.01) | tumor progression after the dosing period ([3]; two weeks following the 21 day dosing period, followed >70 days (FIG. 5)) | effect on growth of uveal melanoma cell line (xCELLigence) [4] | level of pMARCKS (pMARCKS) | T/C (tumor/control) ([3]; COMPOUND B 3.5 mg/kg twice daily, day 17) | T/C (tumor/control) ([3]; COMPOUND B 3.5 mg/kg twice daily, day 22) | pMEK1/2 expression (pMEK1/2) | pERK1/2 levels (pERK1/2; 0.5 μM per agent, seen at 2 hrs, time course 2-48 hours) | pERK1/2 expression by 24 hours (pERK1/2; 0.5 μM, 24 hours)
CN1CCN(c2nc(C3=C(c4c[nH]c5ccccc45)C(=O)NC3=O)c3ccccc3n2)CC1 [AEB071, 3-(1H-indol-3-yl)-4-[2-(4-methyl-piperazin-1-yl)-quinazolin-4-yl]-1H-pyrrole-2,5-dione] | active | 19% | delayed cell growth | near complete mean tumor stasis | 92% | 52% | 18% | 3% | progressed at the control pace | delayed cell growth | attenuated | – | – | – | – | –
Cn1cnc2c(F)c(Nc3ccc(Br)cc3F)c(C(=O)NOCCO)cc21 [COMPOUND B, 6-(4-bromo-2-fluorophenylamino)-7-fluoro-3-methyl-3H-benzoimidazole-5-carboxylic acid (2-hydroxyethoxy)-amide] | active | 57% | modest effect | – | – | – | – | – | – | modest effect | – | 84% | 56% | induction of pMEK1/2 expression | reduction in pERK1/2 levels | beginning to return
